SMILES strings stand for the structures. Like-named read-outs stand apart in the source and are kept apart here.

The values that follow come from patent publication US20240150360A1 (THE REGENTS OF THE UNIVERSITY OF MICHIGAN, priority 2021, published 2024).

In one experiment the target is T1, CBP (Homo sapiens, UniProt Q92793).
T1 construct: endogenous in cells; host or cells: 22Rv1 (ATCC CRL-2505) human prostate cancer cells
The experiment can be described thus: CBP degradation in 22Rv1 cells (5 h). Format: cell-based. Conditions: 22Rv1 cells, 5 h; for Dmax: 22Rv1, 5 h, read-out: CBP Degradation (22Rv1, 5 h) DCmax. The text has this: Biological Assays. […] Cells with 3-8 passages after purchase were used in experiments.

Another experiment concerns 22Rv1 cells. Briefly: Cell growth inhibition assay (CellTiter-Glo) in 22Rv1. Format: cell-based, human. Conditions: 22Rv1 cells, 96 h incubation, read-out: Cell Growth Inhibition (IC50) 22Rv1. On the procedure: Biological Assays. CBP/p300 degradation activity and cell growth inhibition were evaluated in the human prostate cancer cell line 22Rv1 (ATCC© CRL-2505™) purchased from the American Type Culture Collection (ATCC), Manassas, VA, and maintained and cultured in Dulbecco's Modified Eagle's medium (DMEM) containing 10% fetal bovine serum, 1 unit/ml of penicillin and 1 μg/ml of streptomycin. Cells with 3-8 passages after purchase were used in experiments.
Cell Growth Inhibition Assay Protocol. 22RV1 cells were seeded at a concentration of 4000 cells/well in 100 μl culture medium and 2 μl of test compound (final concentration start from 10 μM and 3 times dilution) into 96 well microplates (Corning 3903). The cell cultures were incubated for 96 h at +37° C. and 5% CO2. The plate and its contents were equilibrated to room temperature for approximately 30 minutes. 100 μl of CellTiter-Glo® 2.0 Reagent equal to the volume of cell culture medium present was added in each well. The contents were mixed for 2 minutes on an orbital shaker. The plate was allowed to incubate at room temperature for 10 minutes. The luminescence was recorded. The data was analyzed by Prism GraphPad 8.
On the technique in general: In ATP-based viability assays light output follows the ATP content of the culture.

The subject of the next experiment is HL60. The experiment can be described thus: Cell growth inhibition in HL60. Conditions: Homo sapiens, HL-60, HL60 cells; read-out: Cell Growth Inhibition (IC50) HL60. In kind it is cell-based.

T1 sequence (Q92793 whole entry): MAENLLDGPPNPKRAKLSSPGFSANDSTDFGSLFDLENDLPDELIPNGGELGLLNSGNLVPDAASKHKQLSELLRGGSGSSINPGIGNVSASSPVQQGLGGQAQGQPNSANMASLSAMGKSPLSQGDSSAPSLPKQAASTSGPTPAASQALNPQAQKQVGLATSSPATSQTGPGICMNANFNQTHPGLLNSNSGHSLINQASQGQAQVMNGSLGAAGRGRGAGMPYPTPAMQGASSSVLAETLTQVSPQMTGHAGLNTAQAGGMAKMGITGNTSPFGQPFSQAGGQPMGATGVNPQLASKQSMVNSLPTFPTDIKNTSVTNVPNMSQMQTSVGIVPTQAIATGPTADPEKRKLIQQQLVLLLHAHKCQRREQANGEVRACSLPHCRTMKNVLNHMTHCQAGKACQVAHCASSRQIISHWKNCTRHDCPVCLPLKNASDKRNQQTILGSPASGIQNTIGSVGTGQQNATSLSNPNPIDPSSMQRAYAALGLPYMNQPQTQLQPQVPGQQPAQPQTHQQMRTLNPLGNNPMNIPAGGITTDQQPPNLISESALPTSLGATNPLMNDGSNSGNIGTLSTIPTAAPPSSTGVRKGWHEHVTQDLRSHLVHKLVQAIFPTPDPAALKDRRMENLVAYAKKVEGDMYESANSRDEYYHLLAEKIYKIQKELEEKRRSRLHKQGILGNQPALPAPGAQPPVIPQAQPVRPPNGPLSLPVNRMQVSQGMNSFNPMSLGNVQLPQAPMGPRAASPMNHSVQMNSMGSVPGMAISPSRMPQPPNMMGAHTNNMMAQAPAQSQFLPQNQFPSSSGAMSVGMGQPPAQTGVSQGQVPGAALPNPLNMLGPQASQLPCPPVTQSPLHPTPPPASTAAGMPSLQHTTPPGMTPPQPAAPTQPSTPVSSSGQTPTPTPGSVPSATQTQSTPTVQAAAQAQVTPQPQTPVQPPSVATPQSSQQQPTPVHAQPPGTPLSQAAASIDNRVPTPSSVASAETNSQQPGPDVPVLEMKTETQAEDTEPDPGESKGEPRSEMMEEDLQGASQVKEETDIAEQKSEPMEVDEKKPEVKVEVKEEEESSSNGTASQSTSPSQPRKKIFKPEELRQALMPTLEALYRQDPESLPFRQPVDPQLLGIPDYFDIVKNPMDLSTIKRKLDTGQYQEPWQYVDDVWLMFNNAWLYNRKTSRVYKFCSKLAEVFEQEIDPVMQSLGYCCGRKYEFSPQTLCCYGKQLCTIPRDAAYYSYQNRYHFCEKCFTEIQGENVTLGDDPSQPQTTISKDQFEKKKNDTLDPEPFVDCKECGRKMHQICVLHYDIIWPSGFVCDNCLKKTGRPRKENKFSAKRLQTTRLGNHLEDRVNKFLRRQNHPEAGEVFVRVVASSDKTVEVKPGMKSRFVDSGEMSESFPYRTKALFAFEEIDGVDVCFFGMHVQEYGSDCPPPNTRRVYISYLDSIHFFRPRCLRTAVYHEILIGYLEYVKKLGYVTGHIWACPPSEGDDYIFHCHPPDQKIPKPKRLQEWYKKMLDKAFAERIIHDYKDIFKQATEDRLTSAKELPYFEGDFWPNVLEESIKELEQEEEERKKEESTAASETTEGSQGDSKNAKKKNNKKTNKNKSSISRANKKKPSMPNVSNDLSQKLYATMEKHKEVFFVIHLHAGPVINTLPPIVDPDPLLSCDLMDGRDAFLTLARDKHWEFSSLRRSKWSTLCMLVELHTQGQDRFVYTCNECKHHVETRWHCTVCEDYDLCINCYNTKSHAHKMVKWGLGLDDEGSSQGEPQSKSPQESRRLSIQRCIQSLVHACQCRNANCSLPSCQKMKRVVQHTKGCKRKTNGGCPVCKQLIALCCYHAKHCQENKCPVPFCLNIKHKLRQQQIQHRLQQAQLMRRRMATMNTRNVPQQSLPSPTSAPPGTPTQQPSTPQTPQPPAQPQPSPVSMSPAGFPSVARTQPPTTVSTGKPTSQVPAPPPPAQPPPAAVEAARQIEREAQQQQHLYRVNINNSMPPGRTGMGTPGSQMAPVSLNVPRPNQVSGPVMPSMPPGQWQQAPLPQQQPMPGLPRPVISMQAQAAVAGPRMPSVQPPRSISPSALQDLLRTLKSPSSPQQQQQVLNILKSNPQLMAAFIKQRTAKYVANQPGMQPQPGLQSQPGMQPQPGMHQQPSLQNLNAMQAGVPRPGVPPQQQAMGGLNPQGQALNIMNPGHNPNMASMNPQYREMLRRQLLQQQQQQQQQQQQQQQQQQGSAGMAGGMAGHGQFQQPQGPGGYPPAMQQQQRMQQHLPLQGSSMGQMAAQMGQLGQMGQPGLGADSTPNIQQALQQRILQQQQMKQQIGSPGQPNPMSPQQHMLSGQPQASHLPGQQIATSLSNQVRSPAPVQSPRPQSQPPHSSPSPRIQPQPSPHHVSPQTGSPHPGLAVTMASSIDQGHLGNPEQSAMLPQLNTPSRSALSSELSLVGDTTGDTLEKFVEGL

For orientation: DC50 means the concentration at which degradation of the target reaches its halfway point. A lower DC50 goes with a more potent degrader. A word on the IC50: it is the midpoint of a concentration-inhibition curve. With `CC(=O)N1CCc2c(c(N3CCCc4cc(-c5cnn(C)c5)c(C(F)F)cc43)nn2C2CCN(CC(=O)N3Cc4cc5c(cc4C3)C(=O)N(C3CCC(=O)NC3=O)C5=O)CC2)C1` (stereo not drawn) [CP-006, 6-(2-(4-(5-acetyl-3-(7-(difluoromethyl)-6-(1-methyl-1H-pyrazol-4-yl)-3,4-dihydroquinolin-1(2H)-yl)-4,5,6,7-tetrahydro-1H-pyrazolo[4,3-c]pyridin-1-yl)piperidin-1-yl)acetyl)-2-(2,6-dioxopiperidin-3-yl)-6,7-dihydropyrrolo[3,4-f]isoindole-1,3(2H,5H)-dione], at CBP, the Dmax is above 70%. At CBP, this compound came in with a DC50 below 10 nM. In addition, the IC50 with 22Rv1 cells (Homo sapiens, 22Rv1, 96 h) is below 10000 nM; in the experiment on HL60 it was below 1000 nM.

With `CC(=O)N1CCc2c(c(N3CCCc4cc(-c5cnn(C)c5)c(C(F)F)cc43)nn2C2CCN(C(=O)CCN3Cc4cc5c(cc4C3)C(=O)N(C3CCC(=O)NC3=O)C5=O)CC2)C1` (stereo not drawn) [CP-007, 6-(3-(4-(5-acetyl-3-(7-(difluoromethyl)-6-(1-methyl-1H-pyrazol-4-yl)-3,4-dihydroquinolin-1(2H)-yl)-4,5,6,7-tetrahydro-1H-pyrazolo[4,3-c]pyridin-1-yl)piperidin-1-yl)-3-oxopropyl)-2-(2,6-dioxopiperidin-3-yl)-6,7-dihydropyrrolo[3,4-f]isoindole-1,3(2H,5H)-dione], at CBP, the Dmax was above 70% and the DC50 was below 100 nM. Besides, in the experiment with 22Rv1 cells (Homo sapiens, 22Rv1, 96 h), the IC50 is below 1000 nM. In addition, the IC50 in the experiment on HL60 was below 1000 nM.

For the compound `CC(=O)N1CCc2c(c(N3CCCc4cc(-c5cnn(C)c5)c(C(F)F)cc43)nn2C2CCN(C(=O)CCCN3Cc4cc5c(cc4C3)C(=O)N(C3CCC(=O)NC3=O)C5=O)CC2)C1` (stereo not drawn) [CP-008, 6-(4-(4-(5-acetyl-3-(7-(difluoromethyl)-6-(1-methyl-1H-pyrazol-4-yl)-3,4-dihydroquinolin-1(2H)-yl)-4,5,6,7-tetrahydro-1H-pyrazolo[4,3-c]pyridin-1-yl)piperidin-1-yl)-4-oxobutyl)-2-(2,6-dioxopiperidin-3-yl)-6,7-dihydropyrrolo[3,4-f]isoindole-1,3(2H,5H)-dione], the Dmax on CBP was above 70%. Besides, on CBP, the DC50 is below 10 nM. Further, the IC50 with 22Rv1 cells (Homo sapiens, 22Rv1, 96 h) was below 100 nM; with HL60, below 100 nM.

As for `CC(=O)N1CCc2c(c(N3CCCc4ccc(C(F)F)cc43)nn2C2CCN(C(=O)CN3CCc4cc5c(cc4C3)C(=O)N(C3CCC(=O)NC3=O)C5=O)CC2)C1` (stereo not drawn) [CP-009, 6-(2-(4-(5-acetyl-3-(7-(difluoromethyl)-3,4-dihydroquinolin-1(2H)-yl)-4,5,6,7-tetrahydro-1H-pyrazolo[4,3-c]pyridin-1-yl)piperidin-1-yl)-2-oxoethyl)-2-(2,6-dioxopiperidin-3-yl)-5,6,7,8-tetrahydro-1H-pyrrolo[3,4-g]isoquinoline-1,3(2H)-dione], at CBP, the Dmax was above 90% and the DC50 was below 10 nM. In the experiment on 22Rv1 cells (Homo sapiens, 22Rv1, 96 h), the IC50 was below 1000 nM. For the same compound, the concentration for half-maximal inhibition (IC50) with HL60 was below 100 nM.

As for `CC(=O)N1CCc2c(c(N3CCCc4ccc(C(F)F)cc43)nn2C2CCN(C(=O)CN3Cc4cc5c(cc4C3)C(=O)N(C3CCC(=O)NC3=O)C5=O)CC2)C1` (stereo not drawn) [CP-010, 6-(2-(4-(5-acetyl-3-(7-(difluoromethyl)-3,4-dihydroquinolin-1(2H)-yl)-4,5,6,7-tetrahydro-1H-pyrazolo[4,3-c]pyridin-1-yl)piperidin-1-yl)-2-oxoethyl)-2-(2,6-dioxopiperidin-3-yl)-6,7-dihydropyrrolo[3,4-f]isoindole-1,3(2H,5H)-dione], at CBP, the Dmax was above 70%. The same compound had a DC50 at CBP below 100 nM. Moreover, the IC50 with 22Rv1 cells (Homo sapiens, 22Rv1, 96 h) is above 10000 nM; with HL60, below 1000 nM.

As for `CC(=O)N1CCc2c(c(N3CCCc4cc(-c5cnn(C)c5)c(C(F)F)cc43)nn2C2CCC(CC(=O)N3Cc4cc5c(cc4C3)C(=O)N(C3CCC(=O)NC3=O)C5=O)CC2)C1` (stereo not drawn) [CP-027, 6-(2-(4-(5-acetyl-3-(7-(difluoromethyl)-6-(1-methyl-1H-pyrazol-4-yl)-3,4-dihydroquinolin-1(2H)-yl)-4,5,6,7-tetrahydro-1H-pyrazolo[4,3-c]pyridin-1-yl)cyclohexyl)acetyl)-2-(2,6-dioxopiperidin-3-yl)-6,7-dihydropyrrolo[3,4-f]isoindole-1,3(2H,5H)-dione], on CBP, the Dmax was below 50% and the 50% degradation concentration (DC50) was above 1000 nM. In the experiment with 22Rv1 cells (Homo sapiens, 22Rv1, 96 h), the IC50 is below 10000 nM. Besides, the IC50 in the experiment on HL60 was below 1000 nM.

With `CC(=O)N1CCc2c(c(N3CCCc4cc(-c5cnn(C)c5)c(C(F)F)cc43)nn2C2CCC(CC(=O)N3CCc4cc5c(cc4C3)C(=O)N(C3CCC(=O)NC3=O)C5=O)CC2)C1` (stereo not drawn) [CP-028, 6-(2-(4-(5-acetyl-3-(7-(difluoromethyl)-6-(1-methyl-1H-pyrazol-4-yl)-3,4-dihydroquinolin-1(2H)-yl)-4,5,6,7-tetrahydro-1H-pyrazolo[4,3-c]pyridin-1-yl)cyclohexyl)acetyl)-2-(2,6-dioxopiperidin-3-yl)-5,6,7,8-tetrahydro-1H-pyrrolo[3,4-g]isoquinoline-1,3(2H)-dione], the Dmax at CBP was above 50%. On CBP, this compound returned a DC50 below 10 nM. The IC50 with 22Rv1 cells (Homo sapiens, 22Rv1, 96 h) was below 1000 nM; with HL60, below 100 nM.

With `CC(=O)N1CCc2c(c(N3CCCc4cc(-c5cnn(C)c5)c(C(F)F)cc43)nn2C[C@H]2CC[C@H](C(=O)N3Cc4cc5c(cc4C3)C(=O)N(C3CCC(=O)NC3=O)C5=O)CC2)C1` (stereo partly drawn) [CP-029, trans-6-(4-((5-acetyl-3-(7-(difluoromethyl)-6-(1-methyl-1H-pyrazol-4-yl)-3,4-dihydroquinolin-1(2H)-yl)-4,5,6,7-tetrahydro-1H-pyrazolo[4,3-c]pyridin-1-yl)methyl)cylcohexane-1-carbonyl)-2-(2,6-dioxopiperidin-3-yl)-6,7-dihydropyrrolo[3,4-f]isoindole-1,3(2H,5H)-dione], on CBP, the Dmax is above 50% and the DC50 was below 100 nM. Besides, the half-maximal inhibitory concentration (IC50) in the experiment with 22Rv1 cells (Homo sapiens, 22Rv1, 96 h) was below 10000 nM. Moreover, in the experiment on HL60, the IC50 is below 10000 nM.

Consider `CC(=O)N1CCc2c(c(N3CCCc4cc(-c5cnn(C)c5)c(C(F)F)cc43)nn2C[C@H]2CC[C@H](C(=O)N3CCc4cc5c(cc4C3)C(=O)N(C3CCC(=O)NC3=O)C5=O)CC2)C1` (stereo partly drawn) [CP-030, trans-6-(4-((5-acetyl-3-(7-(difluoromethyl)-6-(1-methyl-1H-pyrazol-4-yl)-3,4-dihydroquinolin-1(2H)-yl)-4,5,6,7-tetrahydro-1H-pyrazolo[4,3-c]pyridin-1-yl)methyl)cyclohexane-1-carbonyl)-2-(2,6-dioxopiperidin-3-yl)-5,6,7,8-tetrahydro-1H-pyrrolo[3,4-g]isoquinoline-1,3(2H)-dione], for which, at CBP, the Dmax was below 50% and the DC50 is above 1000 nM. Also, in the experiment with 22Rv1 cells (Homo sapiens, 22Rv1, 96 h), the half-inhibitory concentration (IC50) is below 10000 nM. Besides, the IC50 in the experiment on HL60 is below 1000 nM.

Consider `CC(=O)N1CCc2c(c(N3CCCc4cc(-c5cnn(C)c5)c(C(F)F)cc43)nn2C[C@H]2CC[C@@H](C(=O)N3Cc4cc5c(cc4C3)C(=O)N(C3CCC(=O)NC3=O)C5=O)CC2)C1` (stereo partly drawn) [CP-031, cis-6-(4-((5-acetyl-3-(7-(difluoromethyl)-6-(1-methyl-1H-pyrazol-4-yl)-3,4-dihydroquinolin-1(2H)-yl)-4,5,6,7-tetrahydro-1H-pyrazolo[4,3-c]pyridin-1-yl)methyl)cyclohexane-1-carbonyl)-2-(2,6-dioxopiperidin-3-yl)-6,7-dihydropyrrolo[3,4-f]isoindole-1,3(2H,5H)-dione], for which the Dmax on CBP is above 50%. The compound also returned a DC50 at CBP below 100 nM. Further, the IC50 in the experiment with 22Rv1 cells (Homo sapiens, 22Rv1, 96 h) was below 10000 nM; with HL60, below 1000 nM.

For `CC(=O)N1CCc2c(c(N3CCCc4cc(-c5cnn(C)c5)c(C(F)F)cc43)nn2C[C@H]2CC[C@@H](C(=O)N3CCc4cc5c(cc4C3)C(=O)N(C3CCC(=O)NC3=O)C5=O)CC2)C1` (stereo partly drawn) [CP-032, cis-6-(4-((5-acetyl-3-(7-(difluoromethyl)-6-(1-methyl-1H-pyrazol-4-yl)-3,4-dihydroquinolin-1(2H)-yl)-4,5,6,- tetrahydro-1H-pyrazolo[4,3-c]pyridin-1-yl)methyl)cyclohexane-1-carbonyl)-2-(2,6-dioxopiperidin-3-yl)-5,6,7,8-tetrahydro-1H-pyrrolo[3,4-g]isoquinoline-1,3(2H)-dione], the Dmax on CBP is above 50%. Moreover, the DC50 at CBP was below 100 nM. In addition, the IC50 in the experiment with 22Rv1 cells (Homo sapiens, 22Rv1, 96 h) is below 10000 nM; with HL60 it was below 1000 nM.

For `CC(=O)N1CCc2c(c(N3CCCc4cc(-c5cnn(C)c5)c(C(F)F)cc43)nn2C2CCC(C(=O)N3Cc4cc5c(cc4C3)C(=O)N(C3CCC(=O)NC3=O)C5=O)CC2)C1` (stereo not drawn) [CP-033, 6-(4-(5-acetyl-3-(7-(difluoromethyl)-6-(1-methyl-1H-pyrazol-4-yl)-3,4-dihydroquinolin-1(2H)-yl)-4,5,6,7-tetrahydro-1H-pyrazolo[4,3-c]pyridin-1-yl)cyclohexane-1-carbonyl)-2-(2,6-dioxopiperidin-3-yl)-6,7-dihydropyrrolo[3,4-f]isoindole-1,3(2H,5H)-dione], at CBP, the Dmax was above 90% and the half-maximal degradation concentration (DC50) was below 10 nM. For the same compound, in the experiment on 22Rv1 cells, the IC50 is below 100 nM. Also, the IC50 in the experiment with HL60 is below 100 nM.
